Results as given in paper PMC9106035, “Synthesis, X-ray Structure and Biological Studies of New Self-Assembled Cu(II) Complexes Derived from s-Triazine Schiff Base Ligand” (Molecules, 2022).
Values after ≈ are worked out from the molar mass of the structure shown.

Experiments:
[1] = tested on: lung carcinoma A-549 cell line; assay: Anticancer activity, MTT viability assay; format: cell-based
Procedure: The studied compounds were examined for their anticancer activity against the lung carcinoma A-549 cell line.
(§1) Method S4 Evaluation of Cytotoxic activity
(§2) The cells were propagated in Dulbecco’s modified Eagle’s medium (DMEM) supplemented with 10% heat-inactivated fetal bovine serum, 1 % L-glutamine, HEPES buffer and 50µg/mL Gentamycin. All cells were maintained at 37 °C in a humidified atmosphere with 5% CO2 and were subcultured tw o times a week.
(§3) Cytotoxicity evaluation using viability assay
(§4) For cytotoxicity assay, the cells were seeded in 96-well plate at a cell concentration of 1×10^4 cells per well in 100µl of growth medium. Fresh medium containing different concentrations of the test sample was added after 24 h of seeding. Serial two-fold dilutions of the tested chemical compound were added to confluent cell monolayers dispensed into 96-well, flat-bottomed microtiter plates (Falcon, NJ, USA) using a multichannel pipette. The microtiter plates were incubated at 37 °C in a humidified incubator with 5% CO2 for a period of 24 h. Three wells were used for each concentration of the test sample. Control cells were incubated without test sample and with or without DMSO. The little percentage of DMSO present in the […]
(§5) cells for at 37°C, for 24 h, the viabl e cells yield was determined by the MTT test.
(§6) Briefly, the media was removed from the 96 well plate and replaced with 100 µL of fresh culture DMEM m edium without phenol red then 10 µL of the 12 mM MTT stock solution (5 mg of MTT in 1 mL of PBS) to each well including the untreated controls. The 96 well plates were then incubated at 37°C and 5% CO2 for 4 hours. An 85 µL aliquot of the media was removed from t he wells, and 50 µL of DMSO was added to each well and mixed thoroughly with the pipette and incubated at 37°C for 10 min. Then, the optical density was measured at 590 nm with the microplate reader (SunRise, TECAN, Inc, USA) to determine the number of viable cells and the percentage of viability was calculat ed as [(ODt/ODc)]x100% where ODt i s the mean optical density of wells treated with the tested s ample and ODc is the mean optical density of untreated cells. The relation between surviving cells and drug concentration is plotted to get the survival curve of each tumor cell line after treatment with the specified compound. The 50% inhibitory concentration (IC50), the concentration required to cause t oxic effects in 50% of intact cells, was estimated from graphic plots of the dose response curve for each conc. using Graphpad Prism software (San Diego, […]

[2] = Cytotoxic activity on normal cells, MTT viability assay; format: cell-based, human; details: human, MRC-5 normal lung fibroblast cells
Procedure: (§7) In this regard, the selectivity index (SI) was calculated as the ratio of cytotoxic effect on the normal cell line to the cytotoxic effect on the cancer cell line.
as §1, §2, §3, §4, §5, §6

[3] = tested on: normal human lung fibroblast MRC-5 cells; assay: as above; format: cell-based; details: Homo sapiens, MRC5, MRC-5, Table S10, read-out: Inhibitory %
Procedure: as §7, §1, §2, §3, §4, §5, §6

[4] = DPPH radical scavenging assay; format: biochemical
Procedure: The studied Cu(II) complexes and the free ligands were assessed for their antioxidant activity levels using an α,α-diphenyl-β-picrylhydrazyl (DPPH) scavenging assay, and the results are given in Table 7. […] The results indicated better antioxidant activity for DMAT than for DMOHT, indicating the effect of the substituent at the phenyl moiety on the antioxidant activity level of the free ligand. […] On the other hand, the Cu(II) complexes have improved levels of antioxidant activity compared to the free ligands.
Method S3 DPPH Radical Scavenging Activity:
Freshly prepared (0.004 %w/v) methanol solution of 2,2-diphenyl-1-pi crylhydrazyl (DPPH) radical was prepared and stored at 10 °C in dark place. A methanolic solution of the test compound was prepared using the same procedure. A 40 uL aliquot of the methanol solution was added to 3mL of DPPH solution. Absorbance measurements were recorded immediately with a UV-visible spectrophotometer (Milton Roy, Spectronic 1201). The decrease in absorbance at 515 nm was determined continuously, with data being recorded at 1 min intervals until the absorbance stabilized (16 min). The absorbance of the DPPH radical without antioxidant (control) and the reference compound ascorbic acid were also measured.
All the determinations were performed in three replicates and averaged. The percentage inhibition (PI) of the DPPH radical was calculated according to the […]
PI = [{(AC- AT)/ AC} x 100] (1)
Where AC = Absorbance of the control at t = 0 min and AT = absorbance of the sample+DPPH at t = 16 min. The 50% inhibitory concentration (IC50), the concentration required t o inhibit DPPH radical by 50%, was estimated from graphic plots of the dose respons e curve.

For CC(=NNc1nc(N2CCOCC2)nc(N2CCOCC2)n1)c1ccccc1N [DMAT, 2-(1-(2-(4,6-dimorpholino-1,3,5-triazin-2-yl)hydrazono)ethyl)aniline], the “SI = CC50/IC50” value ([1]; CC50 (MRC-5) / IC50 (A-549)) was 1.30, the viability at 2.5 µM ([1]; Homo sapiens, A549, A-549, sample conc. 2.5 µM, Table S5) was 100% and the inhibition at 2.5 µM ([1]; Homo sapiens, A549, A-549, sample conc. 2.5 µM, Table S5, read-out: Inhibitory %) was 0%. It also gave a viability at 5 µM ([1]; Homo sapiens, A549, A-549, sample conc. 5.0 µM, Table S5) of 100%, an inhibition at 5 µM ([1]; Homo sapiens, A549, A-549, sample conc. 5.0 µM, Table S5, read-out: Inhibitory %) of 0% and a viability at 9.8 µM ([1]; Homo sapiens, A549, A-549, sample conc. 9.8 µM, Table S5) of 100%. The inhibition at 9.8 µM ([1]; Homo sapiens, A549, A-549, sample conc. 9.8 µM, Table S5, read-out: Inhibitory %) was 0%, the viability at 19.6 µM ([1]; Homo sapiens, A549, A-549, sample conc. 19.6 µM, Table S5) was 100% and the inhibition at 19.6 µM ([1]; Homo sapiens, A549, A-549, sample conc. 19.6 µM, Table S5, read-out: Inhibitory %) was 0%. For the same molecule, the viability at 39.1 µM ([1]; Homo sapiens, A549, A-549, sample conc. 39.1 µM, Table S5) was 100%, the inhibition at 39.1 µM ([1]; Homo sapiens, A549, A-549, sample conc. 39.1 µM, Table S5, read-out: Inhibitory %) was 0% and the viability at 78.4 µM ([1]; Homo sapiens, A549, A-549, sample conc. 78.4 µM, Table S5) was 100%. For the same molecule, the inhibition at 78.4 µM ([1]; Homo sapiens, A549, A-549, sample conc. 78.4 µM, Table S5, read-out: Inhibitory %) was 0%, the viability at 156.8 µM ([1]; Homo sapiens, A549, A-549, sample conc. 156.8 µM, Table S5) was 98% and the inhibition at 156.8 µM ([1]; Homo sapiens, A549, A-549, sample conc. 156.8 µM, Table S5, read-out: Inhibitory %) was 1.96%. The viability at 313.7 µM ([1]; Homo sapiens, A549, A-549, sample conc. 313.7 µM, Table S5) was 82.7%, the inhibition at 313.7 µM ([1]; Homo sapiens, A549, A-549, sample conc. 313.7 µM, Table S5, read-out: Inhibitory %) was 17.3% and the viability at 627.4 µM ([1]; Homo sapiens, A549, A-549, sample conc. 627.4 µM, Table S5) was 39.6%. The inhibition at 627.4 µM ([1]; Homo sapiens, A549, A-549, sample conc. 627.4 µM, Table S5, read-out: Inhibitory %) was 60.4%, the viability at 1254.8 µM ([1]; Homo sapiens, A549, A-549, sample conc. 1254.8 µM, Table S5) was 17.6% and the inhibition at 1254.8 µM ([1]; Homo sapiens, A549, A-549, sample conc. 1254.8 µM, Table S5, read-out: Inhibitory %) was 82.4%. For the same molecule, the IC50 ([1]; Homo sapiens, A549, A-549 cells, 24 h, MTT) was 551 µM, the viability at 24 h, 2.5 µM ([2]; MRC-5, sample conc. 2.5 µM, Table S10) was 100% and the viability at 24 h, 5 µM ([2]; MRC-5, sample conc. 5.0 µM, Table S10) was 100%. It also gave a viability at 24 h, 9.8 µM ([2]; MRC-5, sample conc. 9.8 µM, Table S10) of 100%, a viability at 24 h, 19.6 µM ([2]; MRC-5, sample conc. 19.6 µM, Table S10) of 100% and a viability at 24 h, 39.1 µM ([2]; MRC-5, sample conc. 39.1 µM, Table S10) of 100%. For the same molecule, the viability at 24 h, 78.4 µM ([2]; MRC-5, sample conc. 78.4 µM, Table S10) was 100%, the viability at 24 h, 156.8 µM ([2]; MRC-5, sample conc. 156.8 µM, Table S10) was 99.8% and the viability at 24 h, 313.7 µM ([2]; MRC-5, sample conc. 313.7 µM, Table S10) was 89.3%. It also gave a viability at 24 h, 627.4 µM ([2]; MRC-5, sample conc. 627.4 µM, Table S10) of 53.9%, a viability at 24 h, 1254.8 µM ([2]; MRC-5, sample conc. 1254.8 µM, Table S10) of 26.1% and a CC50 at 24 h ([2]; MRC-5 cells, 24 h, MTT) of 716 µM. For the same molecule, the inhibition at 2.5 µM ([3]; sample conc. 2.5 µM) was 0%, the inhibition at 5 µM ([3]; sample conc. 5.0 µM) was 0% and the inhibition at 9.8 µM ([3]; sample conc. 9.8 µM) was 0%. For the same molecule, the inhibition at 19.6 µM ([3]; sample conc. 19.6 µM) was 0%, the inhibition at 39.1 µM ([3]; sample conc. 39.1 µM) was 0% and the inhibition at 78.4 µM ([3]; sample conc. 78.4 µM) was 0%. It also gave an inhibition at 156.8 µM ([3]; sample conc. 156.8 µM) of 0.15%, an inhibition at 313.7 µM ([3]; sample conc. 313.7 µM) of 10.7% and an inhibition at 627.4 µM ([3]; sample conc. 627.4 µM) of 46.1%. The inhibition at 1254.8 µM ([3]; sample conc. 1254.8 µM) was 73.9%, the “DPPH Scavenging %” value ([4]; Conc. 2.5 μg/mL) was 20.79% and the “DPPH Scavenging %” value ([4]; Conc. 5 μg/mL) was 28.65%. The “DPPH Scavenging %” value ([4]; Conc. 10 μg/mL) was 35.17%, the “DPPH Scavenging %” value ([4]; Conc. 20 μg/mL) was 54.23% and the “DPPH Scavenging %” value ([4]; Conc. 40 μg/mL) was 70.89%. The “DPPH Scavenging %” value ([4]; Conc. 80 μg/mL) was 79.28%, the “DPPH Scavenging %” value ([4]; Conc. 160 μg/mL) was 86.59% and the “DPPH Scavenging %” value ([4]; Conc. 320 μg/mL) was 91.37%. For the same molecule, the “DPPH Scavenging %” value ([4]; Conc. 640 μg/mL) was 94.08%, the “DPPH Scavenging %” value ([4]; Conc. 1280 μg/mL) was 95.31% and the “IC50 (DPPH scavenging)” value ([4]; antioxidant activity) was 17.83 ± 0.65 µg/mL (≈ 44.7 µM).
